Data: patent US8309685B2 (Celgene Avilomics Research, Inc., priority 2007, dated 2012)

What was measured:
[1] = test system: cell line ET (luc-ubi-neo/ET), human Huh7 hepatoma cell line; assay: Method A: cytotoxicity in ET replicon cells (CytoTox-1); assay type: cell-based; conditions: concentration decreasing cell viability by 50%, 72 hr
Procedure: The compounds were assayed to evaluate the antiviral activity and cytotoxicity of compounds in vitro using HCV RNA replicons. This assay used the cell line ET (luc-ubi-neo/ET), which is a human Huh7 hepatoma cell line that contains an HCV RNA replicon with a stable luciferase (Luc) reporter and three cell culture-adaptive mutations. […]
The ET cell line was grown in Dulbecco's modified essential media (DMEM), 10% fetal bovine serum (FBS), 1% penicillin-streptomycin (pen-strep), 1% glutamine, 250 μg/ml G418 in a 5% CO2 incubator at 37° C. All cell culture reagents were obtained from Mediatech (Manassas, Va.). Cells were trypsinized (1% trypsin:EDTA) and plated out at 5×10^3 cells/well in white 96-well assay plates (Costar) dedicated to cell number (cytotoxicity) or antiviral activity assessments. Drugs were added at six 3-fold concentrations each and the assay was run in DMEM, 5% FBS, 1% pen-strep, 1% glutamine. Human interferon alpha-2b (PBL Biolabs, New Brunswick, N.J.) was included in each run as a positive control compound. Cells were processed 72 hr post drug addition when the cells are still subconfluent. Antiviral activity was measured by analyzing replicon-derived luciferase activity using the Steady-Glo Luciferase Assay System (Promega, Madison, Wis.) according to manufacturer's instruction. The number of cells in each well was determined by CytoTox-1 reagent (Promega). […].

[2] = test system: HCV RNA replicon in cell line ET (luc-ubi-neo/ET), human Huh7 hepatoma; assay: Method A: HCV RNA replicon antiviral assay (luciferase, ET cell line); assay type: cell-based, Hepatitis C virus; conditions: Hepatitis C virus, Huh-7; Replicon, assay of Example 22; 72 hr; read-out: Inhibition, Replicon
Outline: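 Six 3-fold dilutions of each drug were tested on subconfluent luc-ubi-neo/ET Huh7 replicon cells (5×10^3/well) for 72 hr at 37 °C. EC50 and EC90 came from luciferase read-out, IC50 from CytoTox-1 cell number, and […]; interferon alpha-2b was run each time as control.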

[3] = target: T1, D168A mutant of the HCV NS3/4A 1b protease enzyme (Hepatitis C virus genotype 1b, UniProt P26663, D1194A); assay: HCV Protease FRET Assay (IC50), D168A mutant; assay type: biochemical; conditions: read-out: Inhibition, HCV D168A; D168A enzyme, FRET assay
T1 construct: 10× stocks of NS3/4A protease enzyme from Bioenza (Mountain View, Calif.); purchased Bioenza (Mountain View, Calif.)
Procedure: (§1) HCV Protease FRET Assay for Wild Type and Mutated NS3/4A 1b Enzymes (IC50)
(§2) Protease reactions were started with the addition of 45 μL of the FRET substrate and monitored for 120 minutes at λex487/λem514 through Quad^4 monochromoters in a Synergy^4 plate reader from BioTek (Winooski, Vt.). At the conclusion of each assay, progress curves from each well were examined for linear reaction kinetics and fit statistics (R^2, absolute sum of squares).
(§3) The compound numbers correspond to the compound numbers in Table 3.

[4] = target: T2, wild type HCV NS3/4A 1b protease enzyme (Hepatitis C virus genotype 1b, UniProt P26663); assay: biochemical; assay type: biochemical; conditions: read-out: Inhibition, WT; WT enzyme, FRET assay
T2 construct: 10× stocks of NS3/4A protease enzyme from Bioenza (Mountain View, Calif.); purchased Bioenza (Mountain View, Calif.)
Procedure: as §1, §2, §3

[5] = test system: HCV RNA replicon in cell line ET (luc-ubi-neo/ET), human Huh7 hepatoma; assay: Luciferase Assay (Example 35), replicon-derived luciferase activity; assay type: cell-based; conditions: Hepatitis C virus, Huh-7; assay described in Example 35
Procedure: The compounds were assayed to evaluate the antiviral activity and cytotoxicity of compounds using replicon-derived luciferase activity. This assay used the cell line ET (luc-ubi-neo/ET), which is a human Huh7 hepatoma cell line that contains an HCV RNA replicon with a stable luciferase (Luc) reporter and cell culture-adaptive mutations. The ET cell line was grown in a 5% CO2 incubator at 37° C. in Dulbecco's modified essential media (DMEM) supplemented with 2 mM L-glutamine, nonessential amino acids, 100 U of penicillin/ml, 100 μg of streptomycin/mL, and 10% fetal bovine serum. G418 (Geneticin; Invitrogen) was added at a final concentration of 400 ug//mL.
All cell culture reagents were obtained from Invitrogen (Carlsbad). Cells were trypsinized (1% trypsin:EDTA) and plated out at 5×10^3 cells/well in white 96-well assay plates (Costar) dedicated to cell number (cytotoxicity) or antiviral activity assessments. Test compounds were added at six 3-fold concentrations each and the assay was run in DMEM, 5% FBS, 1% pen-strep, 1% glutamine, 1% non essential amino acid. Human interferon alpha-2b (PBL Biolabs, New Brunswick, N.J.) was included in each run as a positive control compound. Cells were processed 72 hr post test compound addition when the cells were still subconfluent. Antiviral activity was measured by analyzing replicon-derived luciferase activity using the Steady-Glo Luciferase Assay System (Promega, Madison, Wis.) according to manufacturer's instruction. The number of cells in each well was determined by Cell Titer Blue Assay (Promega). Compound profile was derived by calculating applicable EC50 (effective concentration inhibiting virus replication by 50%), EC90 (effective concentration inhibiting virus replication by 90%), IC50 (concentration decreasing cell viability by 50%) and SI50 (selective index: […]) values.

[6] = target: T2, wild type HCV NS3/4A 1b protease enzyme; assay: HCV Protease FRET Assay (IC50_APP), wild type; assay type: biochemical
[7] = target: T3, R155K mutant of the HCV NS3/4A 1b protease enzyme (Hepatitis C virus genotype 1b, UniProt P26663, R1181K); assay: HCV Protease FRET Assay (IC50_APP), R155K mutant; assay type: biochemical; conditions: apparent IC50, R155K mutant; read-out: IC50_APP, HCV R155K
T3 construct: 10× stocks of NS3/4A protease enzyme from Bioenza (Mountain View, Calif.); purchased Bioenza (Mountain View, Calif.)
Procedure: HCV Protease FRET Assay for WT and Mutated NS3/4A 1b Enzymes (IC50—APP).
The following protocol was used to generate “apparent” IC50 (IC50—APP) values as depicted in Table 6, below. […] 5 μL of each enzyme were added to Corning (#3575) 384-well, black, microtiter plates (Corning, N.Y.) after spotting a 0.5 μL volume of 50% DMSO and serially diluted compounds prepared in 50% DMSO. Protease reactions were immediately started after enzyme addition with the addition of 45 μL of the FRET substrate and monitored for 60-90 minutes at λex485/λem520 in a Synergy^4 plate reader from BioTek (Winooski, Vt.). At the conclusion of each assay, progress curves from each well were examined for linear reaction kinetics and fit statistics (R^2, 95% confidence intervals, absolute sum of squares).
The compound numbers correspond to the compound numbers in Table 3. […] ;

[8] = target: T1, D168A mutant of the HCV NS3/4A 1b protease enzyme; assay: HCV Protease FRET Assay (IC50_APP), D168A mutant; assay type: biochemical; conditions: apparent IC50, D168A mutant; read-out: IC50_APP, HCV D168A
[9] = read-out: IC50_APP, WT, apparent IC50, wild type NS3/4A 1b

Q: With `C=C[C@@H]1C[C@]1(NC(=O)[C@@H]1C[C@@H](Oc2cc(-c3ccccc3)nc3cc(OC)ccc23)CN1C(=O)C1(NC(=O)OC(C)(C)C)CCN(C(=O)CCl)CC1)C(=O)NS(=O)(=O)c1ccccc1` [Compound I-25, tert-butyl-1-(2-chloroacetyl)-4-((2S,4R)-4-(7-methoxy-2-phenylquinolin-4-yloxy)-2-((1R,2S)-1-(phenylsulfonylcarbamoyl)-2-vinylcyclopropylcarbamoyl)pyrrolidine-1-carbonyl)piperidin-4-ylcarbamate] as the compound, how does the “Inhibition, Cytotoxicity” value [1] read?
A: C (IC50>100 nM and ≦1000 nM)

Q: And the IC50 [2]?
A: > 10000 nM

Q: What about the IC50 [3] of the same compound?
A: 10 to 100 nM

Q: And the IC50 [4]?
A: < 10 nM

Q: With `C=CC(=O)N1CCC(NC(=O)OC(C)(C)C)(C(=O)N2C[C@H](Oc3cc(-c4ccccc4)nc4cc(OC)ccc34)C[C@H]2C(=O)N[C@]2(C(=O)NS(=O)(=O)c3ccccc3)C[C@H]2C=C)CC1` [Compound I-26, tert-butyl-1-acryloyl-4-((2S,4R)-4-(7-methoxy-2-phenylquinolin-4-yloxy)-2-((1R,2S)-1-(phenylsulfonylcarbamoyl)-2-vinylcyclopropylcarbamoyl)pyrrolidine-1-carbonyl)piperidin-4-ylcarbamate] as the compound, how does the “Inhibition, Cytotoxicity” value [1] read?
A: E (IC50≧10,000 nM)

Q: What about the IC50 [2] of the same compound?
A: > 10000 nM

Q: What about the IC50 [3] of the same compound?
A: 100 to 1000 nM

Q: And the IC50 [4]?
A: < 10 nM

Q: For `C=C[C@@H]1C[C@]1(NC(=O)[C@@H]1C[C@@H](Oc2cc(-c3ccccc3)nc3cc(OC)ccc23)CN1C(=O)[C@H](CN(C)C(=O)C(=C)C)NC(=O)OC(C)(C)C)C(=O)NS(=O)(=O)c1ccccc1` [Compound I-32, tert-butyl-(S)-1-((2S,4R)-4-(7-methoxy-2-phenylquinolin-4-yloxy)-2-((1R,2S)-1-(phenylsulfonylcarbamoyl)-2-vinylcyclopropylcarbamoyl)pyrrolidin-1-yl)-3-(N-methylmethacrylamido)-1-oxopropan-2-ylcarbamate], which “Inhibition, Cytotoxicity” value [1] is on record?
A: E (IC50≧10,000 nM)

Q: And the IC50 [2]?
A: 100 to 1000 nM

Q: And the IC50 [3]?
A: 1000 to 10000 nM

Q: And the IC50 [4]?
A: < 10 nM

Q: `C=CC(=O)N[C@H](C(=O)N1C[C@H](Oc2nccc3cc(OC)ccc23)C[C@H]1C(=O)N[C@]1(C(=O)NS(=O)(=O)C2CC2)C[C@H]1C=C)C(C)(C)O` [Compound I-131] was tested. Which EC50 [5] did it give?
A: 100 to 1000 nM

Q: And the IC50 [6, 9]?
A: < 10 nM

Q: What about the IC50 [7] of the same compound?
A: 10 to 100 nM

Q: What about the IC50 [8] of the same compound?
A: 10 to 100 nM

Q: What does the source list for `C=C[C@@H]1C[C@]1(NC(=O)[C@@H]1C[C@@H](Oc2nccc3cc(OC)ccc23)CN1C(=O)[C@H](CC(=O)C(=C)C)NC(=O)OC(C)(C)C)C(=O)NS(=O)(=O)C1CC1` [Compound I-132]?
A: EC50 [5]: 100 to 1000 nM; IC50 [6, 9]: < 10 nM; IC50 [7]: < 10 nM; IC50 [8]: < 10 nM

Q: For `C=C[C@@H]1C[C@]1(NC(=O)[C@@H]1C[C@@H](Oc2nccc3cc(OC)ccc23)CN1C(=O)[C@H](CCC(=O)C#CC(C)(C)C)NC(=O)OC(C)(C)C)C(=O)NS(=O)(=O)C1CC1` [Compound I-135], which EC50 [5] is on record?
A: 10 to 100 nM

Q: And the IC50 [6, 9]?
A: < 10 nM

Q: And the IC50 [7]?
A: < 10 nM

Q: And the IC50 [8]?
A: < 10 nM

Q: `C=C[C@@H]1C[C@]1(NC(=O)[C@@H]1C[C@@H](Oc2nccc3cc(OC)ccc23)CN1C(=O)[C@H](CCC(=O)/C=C\C(C)(C)C)NC(=O)OC(C)(C)C)C(=O)NS(=O)(=O)C1CC1` [Compound I-136] was tested. Which EC50 [5] did it give?
A: < 10 nM

Q: And the IC50 [6, 9]?
A: < 10 nM

Q: What about the IC50 [7] of the same compound?
A: 100 to 1000 nM

Q: And the IC50 [8]?
A: 100 to 1000 nM

Q: How did the EC50 [5] turn out when `C=C[C@@H]1C[C@]1(NC(=O)[C@@H]1C[C@@H](Oc2nccc3cc(OC)ccc23)CN1C(=O)[C@H](CCC(=O)C#Cc1ccccc1)NC(=O)OC(C)(C)C)C(=O)NS(=O)(=O)C1CC1` [Compound I-138] was run?
A: 100 to 1000 nM

Q: What about the IC50 [6, 9] of the same compound?
A: < 10 nM

Q: What about the IC50 [7] of the same compound?
A: < 10 nM

Q: And the IC50 [8]?
A: 10 to 100 nM

Q: Which results are given for `C=C[C@@H]1C[C@]1(NC(=O)[C@@H]1C[C@@H](Oc2nccc3cc(OC)ccc23)CN1C(=O)[C@H](CCC(=O)/C=C/C)NC(=O)OC(C)(C)C)C(=O)NS(=O)(=O)C1CC1` [Compound I-139]?
A: EC50 [5]: 10 to 100 nM; IC50 [6, 9]: < 10 nM; IC50 [7]: < 10 nM; IC50 [8]: < 10 nM

Q: With `C=C(C)C(=O)C[C@H](NC(=O)OC(C)(C)C)C(=O)N1C[C@H](Oc2nccc3cc(OC)ccc23)C[C@H]1C(=O)N[C@]1(C(=O)NS(=O)(=O)C2CC2)C[C@H]1CC` [Compound I-140] as the compound, how does the EC50 [5] read?
A: 100 to 1000 nM

Q: What about the IC50 [6, 9] of the same compound?
A: < 10 nM

Q: What about the IC50 [7] of the same compound?
A: < 10 nM

Q: And the IC50 [8]?
A: 10 to 100 nM

Q: What does the source list for `C=C[C@@H]1C[C@]1(NC(=O)[C@@H]1C[C@@H](Oc2nccc3cc(OC)ccc23)CN1C(=O)[C@H](CCC(=O)/C=C/C1CCCC1)NC(=O)OC(C)(C)C)C(=O)NS(=O)(=O)C1CC1` [Compound I-141, tert-butyl-(S,E)-7-cyclopentyl-1-((2S,4R)-2-((1R,2S)-1-(cyclopropylsulfonylcarbamoyl)-2-vinylcyclopropylcarbamoyl)-4-(6-methoxyisoquinolin-1-yloxy)pyrrolidin-1-yl)-1,5-dioxohept-6-en-2-ylcarbamate]?
A: EC50 [5]: < 10 nM; IC50 [6]: < 10 nM; IC50 [7]: 10 to 100 nM; IC50 [8]: 100 to 1000 nM

Q: What does the source list for `C=C[C@@H]1C[C@]1(NC(=O)[C@@H]1C[C@@H](Oc2nccc3cc(OC)ccc23)CN1C(=O)[C@@H](C)NC(=O)CC)C(=O)NS(=O)(=O)C1CC1` [I^R-100, (2S,4R)—N-((1R,2S)-1-(cyclopropylsulfonylcarbamoyl)-2-vinylcyclopropyl)-4-(6-methoxyisoquinolin-1-yloxy)-1-((R)-2-propionamidopropanoyl)pyrrolidine-2-carboxamide]?
A: EC50 [5]: 1000 to 10000 nM; IC50 [6]: 100 to 1000 nM; IC50 [7]: 1000 to 10000 nM; IC50 [8]: 1000 to 10000 nM
